Laboratory results reported in patent US9005575B2, “Arg-Gly-Asp-conjugated alpha-melanocyte stimulating hormone hybrid peptide for use in diagnosing and treating melanoma, including metastatic melanoma and methods related to same” (STC.UNM, priority 2009, dated 2015).
Read-outs that look alike come from different tables or passages of the source. Positions of bridges follow the written chain, without caps; N, C: chain ends. Non-standard residues stand in square brackets, D forms with d. Residues, ends and D or L forms follow the SMILES beside them.

Test: Biodistribution in B16/F1 melanoma-bearing C57 mice
Assay type: in vivo
Conditions: female, C57, mouse, iv, total radioactivity; for tissue uptake dose at 0.5 h / tissue uptake at 0.5 h: 0.5 h post-injection; for tissue uptake dose at 4 h / tissue uptake at 4 h: 4 h post-injection; for tissue uptake dose at 24 h / tissue uptake at 24 h: 24 h post-injection
Procedure: All the animal studies were conducted in compliance with Institutional Animal Care and Use Committee approval. The pharmacokinetics of ^99mTc-RGD-Lys-(Arg^11)CCMSH was determined in B16/F1 melanoma-bearing C57 female mice (Harlan, Indianapolis, Ind.). C57 mice were subcutaneously inoculated on the right flank with 1×10^6 B16/F1 cells. The weight of tumors reached approximately 0.2 g 10 days post cell inoculation. Each melanoma-bearing mouse was injected with 0.037 MBq of ^99mTc-RGD-Lys-(Arg^11)CCMSH via the tail vein. Groups of 5 mice were sacrificed at 0.5, 2, 4 and 24 h post-injection, and tumors and organs of interest were harvested, weighed and counted. Blood values were taken as 6.5% of the whole-body weight. The MC1 receptor specificity of the tumor uptake was determined at 2 h post-injection by co-injecting ^99mTc-RGD-Lys-(Arg^11)CCMSH with 10 μg (6.1 nmol) of unlabeled NDP-MSH, a linear α-MSH peptide analogue with picomolar affinity for the MC1 receptors present on murine melanoma cells. The co-injection of 3.5 μg (6.1 nmol) of RGD peptide was performed to determine the αvβ3 integrin specificity of the tumor uptake 2 h post-injection. Statistical analysis was performed using the Student's t-test for unpaired data.
All the animal studies were conducted in compliance with Institutional Animal Care and Use Committee approval. The pharmacokinetics of ^99mTc-RGD-Arg-(Arg^11)CCMSH was determined in B16/F1 melanoma-bearing C57 female mice (Harlan, Indianapolis, Ind.). C57 mice were subcutaneously inoculated on the right flank with 1×10^6 B16/F1 cells. The weight of tumors reached approximately 0.2 g 10 days post cell inoculation. Each melanoma-bearing mouse was injected with 0.037 MBq of ^99mTc-RGD-Arg-(Arg^11)CCMSH via the tail vein. Groups of 5 mice were sacrificed at 0.5, 2, 4 and 24 h post-injection, and tumors and organs of interest were harvested, weighed and counted. Blood values were taken as 6.5% of the whole-body weight. The MC1 receptor specificity of the tumor uptake was determined at 2 h post-injection by co-injecting ^99mTc-RGD-Arg-(Arg^11)CCMSH with 10 μg (6.1 nmol) of unlabeled NDP-MSH. The co-injection of 3.5 μg (6.1 nmol) of RGD peptide was performed to determine the αvβ3 integrin specificity of the tumor uptake at 2 h post-injection.

[1] = bladder, 0.037 MBq, read-out: Bladder, Percentage Injected Dose
[2] = blood, 0.037 MBq, read-out: Blood, Percentage Injected Dose/gram
[3] = bone, 0.037 MBq, read-out: Bone, Percentage Injected Dose/gram
[4] = brain, 0.037 MBq, read-out: Brain, Percentage Injected Dose/gram
[5] = heart, 0.037 MBq, read-out: Heart, Percentage Injected Dose/gram
[6] = intestines, 0.037 MBq, read-out: Intestines, Percentage Injected Dose
[7] = kidneys, 0.037 MBq, read-out: Kidneys, Percentage Injected Dose/gram
[8] = liver, 0.037 MBq, read-out: Liver, Percentage Injected Dose/gram
[9] = lung, 0.037 MBq, read-out: Lung, Percentage Injected Dose/gram
[10] = muscle, 0.037 MBq, read-out: Muscle, Percentage Injected Dose/gram

dose excreted at 2 h (bladder (urine), 0.037 MBq, 2 h post-injection, read-out: Bladder, Percentage Injected Dose (cleared through the urinary system)): 62.3 ± 8.16%
tissue uptake dose at 0.5 h [1]: 46.9 ± 2.54 %ID
tissue uptake dose at 4 h [1]: 68.7 ± 2.06 %ID
tissue uptake dose at 24 h [1]: 78.2 ± 5.29 %ID
tissue uptake dose at 2 h (bladder, 2 h post-injection, NDP blockade (10 μg NDP-MSH co-injected), read-out: Bladder, Percentage Injected Dose): 75.9 ± 1.75 %ID
tissue uptake dose at 2 h (bladder, 2 h post-injection, RGD blockade (3.5 μg RGD co-injected), read-out: Bladder, Percentage Injected Dose): 75.1 ± 3.69 %ID
tissue uptake at 0.5 h [2]: 3.18 ± 0.51 %ID/g
tissue uptake at 2 h (blood, 0.037 MBq, 2 h post-injection, read-out: Blood, Percentage Injected Dose/gram): 0.96 ± 0.87 %ID/g
tissue uptake at 4 h [2]: 0.5 ± 0.27 %ID/g
tissue uptake at 24 h [2]: 0.11 ± 0.07 %ID/g
tissue uptake at 2 h (blood, 2 h post-injection, NDP blockade (10 μg NDP-MSH co-injected), read-out: Blood, Percentage Injected Dose/gram): 0.32 ± 0.34 %ID/g
tissue uptake at 2 h (blood, 2 h post-injection, RGD blockade (3.5 μg RGD co-injected), read-out: Blood, Percentage Injected Dose/gram): 0.53 ± 0.17 %ID/g
tissue uptake at 0.5 h [3]: 1.53 ± 0.75 %ID/g
tissue uptake at 2 h (bone, 0.037 MBq, 2 h post-injection, read-out: Bone, Percentage Injected Dose/gram): 1.05 ± 0.31 %ID/g
tissue uptake at 4 h [3]: 0.98 ± 0.67 %ID/g
tissue uptake at 24 h [3]: 0.71 ± 0.39 %ID/g
tissue uptake at 2 h (bone, 2 h post-injection, NDP blockade (10 μg NDP-MSH co-injected), read-out: Bone, Percentage Injected Dose/gram): 0.78 ± 0.65 %ID/g
tissue uptake at 2 h (bone, 2 h post-injection, RGD blockade (3.5 μg RGD co-injected), read-out: Bone, Percentage Injected Dose/gram): 0.37 ± 0.42 %ID/g
tissue uptake at 0.5 h [4]: 0.13 ± 0.03 %ID/g
tissue uptake at 2 h (brain, 0.037 MBq, 2 h post-injection, read-out: Brain, Percentage Injected Dose/gram): 0.12 ± 0.03 %ID/g
tissue uptake at 4 h [4]: 0.07 ± 0.04 %ID/g
tissue uptake at 24 h [4]: 0.06 ± 0.01 %ID/g
tissue uptake at 2 h (brain, 2 h post-injection, NDP blockade (10 μg NDP-MSH co-injected), read-out: Brain, Percentage Injected Dose/gram): 0.06 ± 0.02 %ID/g
tissue uptake at 2 h (brain, 2 h post-injection, RGD blockade (3.5 μg RGD co-injected), read-out: Brain, Percentage Injected Dose/gram): 0.03 ± 0.01 %ID/g
tissue uptake at 0.5 h [5]: 2.1 ± 0.41 %ID/g
tissue uptake at 2 h (heart, 0.037 MBq, 2 h post-injection, read-out: Heart, Percentage Injected Dose/gram): 0.85 ± 0.16 %ID/g
tissue uptake at 4 h [5]: 0.62 ± 0.31 %ID/g
tissue uptake at 24 h [5]: 0.39 ± 0.14 %ID/g
tissue uptake at 2 h (heart, with RGD peptide, 3.5 μg (6.1 nmol) co-injected, 2 h post-injection, RGD blockade (3.5 μg RGD co-injected), read-out: Heart, Percentage Injected Dose/gram): 0.37 ± 0.23 %ID/g
tissue uptake at 2 h (heart, with unlabeled NDP-MSH, 10 μg (6.1 nmol) co-injected, 2 h post-injection, NDP blockade (10 μg NDP-MSH co-injected), read-out: Heart, Percentage Injected Dose/gram): 0.47 ± 0.18 %ID/g
tissue uptake dose at 0.5 h [6]: 3.27 ± 0.13 %ID
tissue uptake dose at 2 h (intestines, 0.037 MBq, 2 h post-injection, read-out: Intestines, Percentage Injected Dose): 3.14 ± 1.2 %ID
tissue uptake dose at 4 h [6]: 2.95 ± 0.62 %ID
tissue uptake dose at 24 h [6]: 1.13 ± 0.18 %ID
tissue uptake dose at 2 h (intestines, 2 h post-injection, NDP blockade (10 μg NDP-MSH co-injected), read-out: Intestines, Percentage Injected Dose): 1.97 ± 0.17 %ID
tissue uptake dose at 2 h (intestines, 2 h post-injection, RGD blockade (3.5 μg RGD co-injected), read-out: Intestines, Percentage Injected Dose): 1.88 ± 0.16 %ID
tissue uptake at 0.5 h [7]: 69.4 ± 5.37 %ID/g
tissue uptake at 2 h (kidneys, 0.037 MBq, 2 h post-injection, read-out: Kidneys, Percentage Injected Dose/gram): 67.1 ± 8.79 %ID/g
tissue uptake at 4 h [7]: 68.3 ± 14.3 %ID/g
tissue uptake at 24 h [7]: 40.3 ± 10.8 %ID/g
tissue uptake at 2 h (kidneys, 2 h post-injection, NDP blockade (10 μg NDP-MSH co-injected), read-out: Kidneys, Percentage Injected Dose/gram): 59.5 ± 9.98 %ID/g
tissue uptake at 2 h (kidneys, 2 h post-injection, RGD blockade (3.5 μg RGD co-injected), read-out: Kidneys, Percentage Injected Dose/gram): 54.2 ± 15.1 %ID/g
tissue uptake at 0.5 h [8]: 4.02 ± 0.42 %ID/g
tissue uptake at 2 h (liver, 0.037 MBq, 2 h post-injection, read-out: Liver, Percentage Injected Dose/gram): 3.17 ± 1.43 %ID/g
tissue uptake at 4 h [8]: 2.91 ± 0.8 %ID/g
tissue uptake at 24 h [8]: 1.73 ± 0.33 %ID/g
tissue uptake at 2 h (liver, 2 h post-injection, NDP blockade (10 μg NDP-MSH co-injected), read-out: Liver, Percentage Injected Dose/gram): 2.89 ± 0.25 %ID/g
tissue uptake at 2 h (liver, 2 h post-injection, RGD blockade (3.5 μg RGD co-injected), read-out: Liver, Percentage Injected Dose/gram): 2.27 ± 0.23 %ID/g
tissue uptake at 0.5 h [9]: 5.31 ± 0.53 %ID/g
tissue uptake at 2 h (lung, 0.037 MBq, 2 h post-injection, read-out: Lung, Percentage Injected Dose/gram): 1.26 ± 0.32 %ID/g
tissue uptake at 4 h [9]: 1.07 ± 0.42 %ID/g
tissue uptake at 24 h [9]: 0.94 ± 0.45 %ID/g
tissue uptake at 2 h (lung, 2 h post-injection, NDP blockade (10 μg NDP-MSH co-injected), read-out: Lung, Percentage Injected Dose/gram): 1.31 ± 0.47 %ID/g
tissue uptake at 2 h (lung, 2 h post-injection, RGD blockade (3.5 μg RGD co-injected), read-out: Lung, Percentage Injected Dose/gram): 1.12 ± 0.1 %ID/g
tissue uptake at 0.5 h [10]: 0.38 ± 0.17 %ID/g
tissue uptake at 2 h (muscle, 0.037 MBq, 2 h post-injection, read-out: Muscle, Percentage Injected Dose/gram): 0.34 ± 0.29 %ID/g
tissue uptake at 4 h [10]: 0.13 ± 0.07 %ID/g
tissue uptake at 24 h [10]: 0.23 ± 0.19 %ID/g
tissue uptake at 2 h (muscle, 2 h post-injection, NDP blockade (10 μg NDP-MSH co-injected), read-out: Muscle, Percentage Injected Dose/gram): 0.21 ± 0.12 %ID/g
tissue uptake at 2 h (muscle, 2 h post-injection, RGD blockade (3.5 μg RGD co-injected), read-out: Muscle, Percentage Injected Dose/gram): 0.15 ± 0.06 %ID/g
Compound: CC(C)[C@H](NC(=O)[C@@H]1CCCN1C(=O)[C@H](CCCNC(=N)N)NC(=O)[C@H](CS)NC(=O)[C@H](Cc1c[nH]c2ccccc12)NC(=O)[C@H](CCCNC(=N)N)NC(=O)[C@@H](Cc1ccccc1)NC(=O)[C@H](Cc1c[nH]cn1)NC(=O)[C@H](CCC(=O)O)NC(=O)[C@H](CS)NC(=O)[C@H](CS)NC(=O)[C@H](CCCCN)NC(=O)[C@@H]1CC(=O)N[C@@H](CCCNC(=N)N)C(=O)NCC(=O)N[C@@H](CC(=O)O)C(=O)N[C@H](Cc2ccc(O)cc2)C(=O)N1)C(N)=O [^99mTc-RGD-Lys-(Arg^11)CCMSH, metal not drawn] (RGD[dY]DKCCEH[dF]RWCRPV-NH2; lactam N-5)
